Laboratory results reported in patent US20260053811A1, “METHODS OF TREATING HYPERTENSION IN OBESE SUBJECTS” (Mineralys Therapeutics, Inc., priority 2022, published 2026).

System: hypertensive subjects
Assay: Adverse events (TEAEs, SAEs, AESI, study drug discontinuation, dose modification);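 also: counts of spontaneously reported adverse events in the Safety Analysis Set, subjects grouped by treatment actually received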
Format: in vivo, human
From the text: In analyses performed on the Safety Analysis Set, subjects will be analyzed according to their actual treatment received.

## CC(=O)N[C@H]1CC[C@H](NC(=O)CN2CCN(c3nncc(-c4ccc(C)cc4)n3)CC2)CC1 [Compound A HBr]
100mg QD Pooled (N 60)
  Dose titration: Hyperkalemia, subjects n (%): 2 (3.3%)
  Dose titration: Hyponatremia, subjects n (%): 1 (1.7%)
  Dose titration: Other possibly related, subjects n (%): 0
  Dose titration: Other unrelated, subjects n (%): 0
  Study drug discontinuation: Hyperkalemia, subjects n (%): 2 (3.3%)
  Study drug discontinuation: Hyponatremia, subjects n (%): 1 (1.7%)
  Study drug discontinuation: Hypotension, subjects n (%): 2 (3.3%)
  Study drug discontinuation: Other possibly related, subjects n (%): 1 (1.7%)
  Study drug discontinuation: Other unrelated, subjects n (%): 4 (6.7%)
Part 1
  Subjects with TEAE resulting in dose modification: 24
Part 1 100mg QD (N 29)
  Dose titration: Hyperkalemia, subjects n (%): 1 (3.4%)
  Dose titration: Hyponatremia, subjects n (%): 0
  Dose titration: Other possibly related, subjects n (%): 0
  Dose titration: Other unrelated, subjects n (%): 0
  Study drug discontinuation: Hyperkalemia, subjects n (%): 2 (6.9%)
  Study drug discontinuation: Hyponatremia, subjects n (%): 0
  Study drug discontinuation: Hypotension, subjects n (%): 1 (3.4%)
  Study drug discontinuation: Other possibly related, subjects n (%): 1 (3.4%)
  Study drug discontinuation: Other unrelated, subjects n (%): 3 (6.0%)
Part 1, 12.5 mg BID (N = 22)
  On-treatment TEAE: Blood and lymphatic system disorders: 0 n (%)
  On-treatment TEAE: Blood and lymphatic system disorders, Mild: 0 n (%)
  On-treatment TEAE: Blood creatinine increased: 0 n (%)
  On-treatment TEAE: Blood creatinine increased, Mild: 0 n (%)
  On-treatment TEAE: Cardiac disorders: 1 (4.5) n (%)
  On-treatment TEAE: Cortisol decreased: 2 (9.1) n (%)
  On-treatment TEAE: Cortisol decreased, Mild: 2 (9.1) n (%)
  On-treatment TEAE: Dizziness: 0 n (%)
  On-treatment TEAE: Gastrointestinal disorders: 0 n (%)
  On-treatment TEAE: Gastrointestinal disorders, Mild: 0 n (%)
  On-treatment TEAE: General disorders and administration site conditions: 2 (9.1) n (%)
  On-treatment TEAE: General disorders and administration site conditions, Mild: 1 (4.5) n (%)
  On-treatment TEAE: Glomerular filtration rate decreased: 3 (13.6) n (%)
  On-treatment TEAE: Glomerular filtration rate decreased, Mild: 3 (13.6) n (%)
  On-treatment TEAE: Headache: 0 n (%)
  On-treatment TEAE: Headache, Mild: 0 n (%)
  On-treatment TEAE: Hyperkalaemia: 5 (22.7) n (%)
  On-treatment TEAE: Hyperkalaemia, Mild: 4 (18.2) n (%)
  On-treatment TEAE: Hyperkalaemia, Moderate: 1 (4.5) n (%)
  On-treatment TEAE: Hyperkalaemia, Severe: 0 n (%)
  On-treatment TEAE: Hypertension: 0 n (%)
  On-treatment TEAE: Hypertension, Moderate: 0 n (%)
  On-treatment TEAE: Infections and infestations: 1 (4.5) n (%)
  On-treatment TEAE: Infections and infestations, Mild: 0 n (%)
  On-treatment TEAE: Infections and infestations, Moderate: 1 (4.5) n (%)
  On-treatment TEAE: Investigations: 6 (27.3) n (%)
  On-treatment TEAE: Investigations, Mild: 5 (22.7) n (%)
  On-treatment TEAE: Investigations, Moderate: 1 (4.5) n (%)
  On-treatment TEAE: Metabolism and nutrition disorders: 5 (22.7) n (%)
  On-treatment TEAE: Metabolism and nutrition disorders, Mild: 4 (18.2) n (%)
  On-treatment TEAE: Metabolism and nutrition disorders, Moderate: 1 (4.5) n (%)
  On-treatment TEAE: Nervous system disorders: 1 (4.5) n (%)
  On-treatment TEAE: Nervous system disorders, Mild: 1 (4.5) n (%)
  On-treatment TEAE: Orthostatic hypotension: 1 (4.5) n (%)
  On-treatment TEAE: Orthostatic hypotension, Mild: 1 (4.5) n (%)
  On-treatment TEAE: Psychiatric disorders: 1 (4.5) n (%)
  On-treatment TEAE: Psychiatric disorders, Moderate: 1 (4.5) n (%)
  On-treatment TEAE: Urinary tract infection: 0 n (%)
  On-treatment TEAE: Urinary tract infection, Mild: 0 n (%)
  On-treatment TEAE: Vascular disorders: 2 (9.1) n (%)
  On-treatment TEAE: Vascular disorders, Mild: 2 (9.1) n (%)
  On-treatment TEAE: Vascular disorders, Moderate: 0 n (%)
  On-treatment TEAE: any, Mild: 8 (36.4) n (%)
  On-treatment TEAE: any, Moderate: 5 (22.7) n (%)
  On-treatment TEAE: any, Severe: 0 n (%)
  Subjects with any On-treatment TEAEs leading to withdrawal from study drug: 1 (4.5) n (%)
  TEAE leading to permanent discontinuation from study drug: Activated partial thromboplastin time prolonged: 0 n (%)
  TEAE leading to permanent discontinuation from study drug: Cardiac disorders: 0 n (%)
  TEAE leading to permanent discontinuation from study drug: Coronary artery disease: 0 n (%)
  TEAE leading to permanent discontinuation from study drug: Dizziness: 0 n (%)
  TEAE leading to permanent discontinuation from study drug: Hyperkalaemia: 0 n (%)
  TEAE leading to permanent discontinuation from study drug: Hypertension: 0 n (%)
  TEAE leading to permanent discontinuation from study drug: Hypotension: 0 n (%)
  TEAE leading to permanent discontinuation from study drug: Investigations: 0 n (%)
  TEAE leading to permanent discontinuation from study drug: Metabolism and nutrition disorders: 0 n (%)
  TEAE leading to permanent discontinuation from study drug: Nervous system disorders: 0 n (%)
  TEAE leading to permanent discontinuation from study drug: Orthostatic hypotension: 1 (4.5) n (%)
  TEAE leading to permanent discontinuation from study drug: Vascular disorders: 1 (4.5) n (%)
Part 1, 12.5 mg QD (N = 23)
  On-treatment TEAE: Blood and lymphatic system disorders: 0 n (%)
  On-treatment TEAE: Blood and lymphatic system disorders, Mild: 0 n (%)
  On-treatment TEAE: Blood creatinine increased: 0 n (%)
  On-treatment TEAE: Blood creatinine increased, Mild: 0 n (%)
  On-treatment TEAE: Cardiac disorders: 2 (8.7) n (%)
  On-treatment TEAE: Cortisol decreased: 0 n (%)
  On-treatment TEAE: Cortisol decreased, Mild: 0 n (%)
  On-treatment TEAE: Dizziness: 1 (4.3) n (%)
  On-treatment TEAE: Gastrointestinal disorders: 2 (8.7) n (%)
  On-treatment TEAE: Gastrointestinal disorders, Mild: 1 (4.3) n (%)
  On-treatment TEAE: General disorders and administration site conditions: 1 (4.3) n (%)
  On-treatment TEAE: General disorders and administration site conditions, Mild: 0 n (%)
  On-treatment TEAE: Glomerular filtration rate decreased: 1 (4.3) n (%)
  On-treatment TEAE: Glomerular filtration rate decreased, Mild: 1 (4.3) n (%)
  On-treatment TEAE: Headache: 0 n (%)
  On-treatment TEAE: Headache, Mild: 0 n (%)
  On-treatment TEAE: Hyperkalaemia: 6 (26.1) n (%)
  On-treatment TEAE: Hyperkalaemia, Mild: 4 (17.4) n (%)
  On-treatment TEAE: Hyperkalaemia, Moderate: 1 (4.3) n (%)
  On-treatment TEAE: Hyperkalaemia, Severe: 1 (4.3) n (%)
  On-treatment TEAE: Hypertension: 2 (8.7) n (%)
  On-treatment TEAE: Hypertension, Moderate: 1 (4.3) n (%)
  On-treatment TEAE: Infections and infestations: 3 (13.0) n (%)
  On-treatment TEAE: Infections and infestations, Mild: 3 (13.0) n (%)
